Laboratory results reported in the supplement of paper PMC10307832.

How the values were obtained:
Test in all cases: relative viability (nuclei count vs DMSO), 5 days (fraction); higher = more cells survive
201T = tested on: 201T
Method in brief: (§1)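 A single step with final 0.05% Triton X-100, 1% formaldehyde and 1 ug/ml Hoechst fixed the cells and stained nuclei 5 days after treatment. Lung cancer cell lines in 1536-well plates had been treated by pin tool the day after seeding with one drug alone or a fixed anchor-drug dose plus five library-drug doses (not always all listed) in √10 steps, and nuclei were counted on 4× images. Relative viability is the ratio of nuclei in treated wells to nuclei in vehicle wells, taken as the median of duplicate plates.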

BEN = tested on: BEN
Method in brief: as §1

COR-L 105 = tested on: COR-L 105
Method in brief: as §1

EKVX = tested on: EKVX
Method in brief: as §1

EPLC-272H = tested on: EPLC-272H
Method in brief: as §1

H3255 = tested on: H3255
Method in brief: as §1

HCC-827 = tested on: HCC-827
Method in brief: as §1

LCLC-97TM1 = tested on: LCLC-97TM1
Method in brief: as §1

LOU-NH91 = tested on: LOU-NH91
Method in brief: as §1

LU99A = tested on: LU99A
Method in brief: as §1

NCI-H1437 = tested on: NCI-H1437
Method in brief: as §1

NCI-H1666 = tested on: NCI-H1666
Method in brief: as §1

NCI-H1975 = tested on: NCI-H1975
Method in brief: as §1

NCI-H2085 = tested on: NCI-H2085
Method in brief: as §1

NCI-H2087 = tested on: NCI-H2087
Method in brief: as §1

NCI-H2170 = tested on: NCI-H2170
Method in brief: as §1

NCI-H2342 = tested on: NCI-H2342
Method in brief: as §1

NCI-H647 = tested on: NCI-H647
Method in brief: as §1

NCI-H650 = tested on: NCI-H650
Method in brief: as §1

PC-3 [JPC-3] = tested on: PC-3 [JPC-3]
Method in brief: as §1

SW 1573 = tested on: SW 1573
Method in brief: as §1

O=c1cc(N2CCOCC2)oc2c(-c3cccc4c3sc3ccccc34)cccc12 + COc1cc2c(Oc3ccc(NC(=O)C4(C(=O)Nc5ccc(F)cc5)CC4)cc3F)ccnc2cc1OCCCN1CCOCC1 [Foretinib] (partner 0.25 µM)
relative viability (201T; first compound 0.01 µM): 1.1
relative viability (201T; first compound 0.03162 µM): 1.13
relative viability (201T; first compound 0.1 µM): 1.1
relative viability (201T; first compound 0.3162 µM): 0.963
relative viability (201T; first compound 1 µM): 1.06
relative viability (BEN; first compound 0.01 µM): 0.548
relative viability (BEN; first compound 0.03162 µM): 0.861
relative viability (BEN; first compound 0.1 µM): 0.57
relative viability (BEN; first compound 0.3162 µM): 0.701
relative viability (BEN; first compound 1 µM): 0.578
relative viability (COR-L 105; first compound 0.01 µM): 0.986
relative viability (COR-L 105; first compound 0.03162 µM): 1.1
relative viability (COR-L 105; first compound 0.1 µM): 0.681
relative viability (COR-L 105; first compound 0.3162 µM): 1.04
relative viability (COR-L 105; first compound 1 µM): 1.21
relative viability (EKVX; first compound 0.01 µM): 0.973
relative viability (EKVX; first compound 0.03162 µM): 1.05
relative viability (EKVX; first compound 0.1 µM): 0.818
relative viability (EKVX; first compound 0.3162 µM): 0.628
relative viability (EKVX; first compound 1 µM): 0.59
relative viability (EPLC-272H; first compound 0.01 µM): 0.607
relative viability (EPLC-272H; first compound 0.03162 µM): 0.667
relative viability (EPLC-272H; first compound 0.3162 µM): 0.734
relative viability (EPLC-272H; first compound 1 µM): 0.688
relative viability (H3255; first compound 0.01 µM): 0.82
relative viability (H3255; first compound 0.03162 µM): 0.952
relative viability (H3255; first compound 0.1 µM): 0.826
relative viability (H3255; first compound 0.3162 µM): 0.83
relative viability (H3255; first compound 1 µM): 0.943
relative viability (HCC-827; first compound 0.01 µM): 1.01
relative viability (HCC-827; first compound 0.03162 µM): 1.11
relative viability (HCC-827; first compound 0.1 µM): 1.03
relative viability (HCC-827; first compound 0.3162 µM): 1.04
relative viability (HCC-827; first compound 1 µM): 1.03
relative viability (LCLC-97TM1; first compound 0.01 µM): 0.905
relative viability (LCLC-97TM1; first compound 0.03162 µM): 0.926
relative viability (LCLC-97TM1; first compound 0.1 µM): 0.937
relative viability (LCLC-97TM1; first compound 0.3162 µM): 0.897
relative viability (LCLC-97TM1; first compound 1 µM): 0.92
relative viability (LOU-NH91; first compound 0.01 µM): 0.869
relative viability (LOU-NH91; first compound 0.03162 µM): 0.938
relative viability (LOU-NH91; first compound 0.1 µM): 1
relative viability (LOU-NH91; first compound 0.3162 µM): 0.927
relative viability (LOU-NH91; first compound 1 µM): 0.955
relative viability (LU99A; first compound 0.01 µM): 0.937
relative viability (LU99A; first compound 0.03162 µM): 0.739
relative viability (LU99A; first compound 0.1 µM): 0.908
relative viability (LU99A; first compound 0.3162 µM): 0.806
relative viability (LU99A; first compound 1 µM): 0.777
relative viability (NCI-H1437; first compound 0.01 µM): 0.877
relative viability (NCI-H1437; first compound 0.03162 µM): 1.28
relative viability (NCI-H1437; first compound 0.1 µM): 1.26
relative viability (NCI-H1437; first compound 0.3162 µM): 1.25
relative viability (NCI-H1437; first compound 1 µM): 1.23
relative viability (NCI-H1666; first compound 0.01 µM): 0.907
relative viability (NCI-H1666; first compound 0.03162 µM): 0.917
relative viability (NCI-H1666; first compound 0.1 µM): 0.983
relative viability (NCI-H1666; first compound 0.3162 µM): 0.883
relative viability (NCI-H1666; first compound 1 µM): 0.913
relative viability (NCI-H1975; first compound 0.01 µM): 0.842
relative viability (NCI-H1975; first compound 0.03162 µM): 1.1
relative viability (NCI-H1975; first compound 0.1 µM): 1.1
relative viability (NCI-H1975; first compound 0.3162 µM): 0.927
relative viability (NCI-H1975; first compound 1 µM): 0.936
relative viability (NCI-H2085; first compound 0.01 µM): 0.96
relative viability (NCI-H2085; first compound 0.03162 µM): 0.941
relative viability (NCI-H2085; first compound 0.1 µM): 0.961
relative viability (NCI-H2085; first compound 0.3162 µM): 0.912
relative viability (NCI-H2085; first compound 1 µM): 0.944
relative viability (NCI-H2087; first compound 0.01 µM): 1.09
relative viability (NCI-H2087; first compound 0.03162 µM): 1.4
relative viability (NCI-H2087; first compound 0.1 µM): 1.28
relative viability (NCI-H2087; first compound 0.3162 µM): 1.24
relative viability (NCI-H2087; first compound 1 µM): 1.2
relative viability (NCI-H2170; first compound 0.01 µM): 0.968
relative viability (NCI-H2170; first compound 0.03162 µM): 0.542
relative viability (NCI-H2170; first compound 0.1 µM): 1.03
relative viability (NCI-H2170; first compound 0.3162 µM): 0.935
relative viability (NCI-H2170; first compound 1 µM): 0.942
relative viability (NCI-H2342; first compound 0.01 µM): 1.04
relative viability (NCI-H2342; first compound 0.03162 µM): 1.11
relative viability (NCI-H2342; first compound 0.1 µM): 0.997
relative viability (NCI-H2342; first compound 0.3162 µM): 1.04
relative viability (NCI-H2342; first compound 1 µM): 1.07
relative viability (NCI-H647; first compound 0.01 µM): 1.24
relative viability (NCI-H647; first compound 0.03162 µM): 1.34
relative viability (NCI-H647; first compound 0.1 µM): 1.34
relative viability (NCI-H647; first compound 0.3162 µM): 1.24
relative viability (NCI-H647; first compound 1 µM): 1.08
relative viability (NCI-H650; first compound 0.03162 µM): 1.07
relative viability (NCI-H650; first compound 0.1 µM): 0.918
relative viability (NCI-H650; first compound 0.3162 µM): 1.01
relative viability (NCI-H650; first compound 1 µM): 0.992
relative viability (PC-3 [JPC-3]; first compound 0.01 µM): 1.01
relative viability (PC-3 [JPC-3]; first compound 0.03162 µM): 1.08
relative viability (PC-3 [JPC-3]; first compound 0.1 µM): 1.05
relative viability (PC-3 [JPC-3]; first compound 0.3162 µM): 1.01
relative viability (PC-3 [JPC-3]; first compound 1 µM): 1.06
relative viability (SW 1573; first compound 0.01 µM): 0.537
relative viability (SW 1573; first compound 0.03162 µM): 0.982
relative viability (SW 1573; first compound 0.1 µM): 0.87
relative viability (SW 1573; first compound 0.3162 µM): 0.87
relative viability (SW 1573; first compound 1 µM): 1.07
